For one experiment, the target named is T1, E selectin (Homo sapiens, UniProt P16581).
T1 construct: formed from the extracytoplasmic domain of either E selectin or P selectin; made in house; host or cells: COS-7 cells (ATCC), transient transfection with DEAE dextran; secreted into culture supernatant, captured on anti-human IgG
T1 sequence (P16581 22-556): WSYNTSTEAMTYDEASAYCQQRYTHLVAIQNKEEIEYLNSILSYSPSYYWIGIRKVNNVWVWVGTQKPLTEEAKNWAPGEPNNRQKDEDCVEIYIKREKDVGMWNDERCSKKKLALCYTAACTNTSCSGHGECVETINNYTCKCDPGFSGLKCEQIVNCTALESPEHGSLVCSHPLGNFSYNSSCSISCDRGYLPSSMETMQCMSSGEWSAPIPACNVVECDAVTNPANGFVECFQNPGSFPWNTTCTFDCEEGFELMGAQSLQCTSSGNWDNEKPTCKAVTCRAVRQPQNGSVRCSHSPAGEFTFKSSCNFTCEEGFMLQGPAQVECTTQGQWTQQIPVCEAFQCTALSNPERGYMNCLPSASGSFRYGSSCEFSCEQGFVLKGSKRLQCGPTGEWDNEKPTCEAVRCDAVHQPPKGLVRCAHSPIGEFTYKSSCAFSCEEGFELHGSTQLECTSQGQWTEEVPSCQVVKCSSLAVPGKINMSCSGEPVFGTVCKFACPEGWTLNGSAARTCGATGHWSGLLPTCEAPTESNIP
Nature of the experiment: HL60 cell adhesion assay on recombinant, soluble E selectin-IgG1 fusion protein. The settings on record: HL60 cells. The experiment is classed as cell-based. An excerpt:
(§1) Primary assays for investigating the effect of the compounds according to the present invention on the adherence of cells to recombinant, soluble selectin fusion proteins.
(§2) In order to test the efficacy of the compounds according to the invention of the interaction between the E and P selectins (old nomenclature, ELAM-1 and GMP-140, respectively) and their ligands, an assay is used which is in each case specific for only one of these interactions. The ligands are presented in their natural form as surface structures on promyelocytic HL60 cells. […] Recombinantly prepared soluble fusion proteins, formed from the extracytoplasmic domain of either E selectin or P selectin and the constant region of a human immunoglobulin of the IgG1 subclass, were used as binding partners.
Preparation of L selektin-IgG1
The gene construct "ELAM-Rg", published by Walz et al., 1990, was used to prepare soluble […] fusion protein.
For the purposes of expression, the plasmid DNA was transfected into COS-7 cells (ATCC) using DEAE dextran (molecular biological methods: see Ausubel, F. M., Brent, R., Kingston, R. E., Moore, D. D., Seidman, J. G., Struhl, K. and Smith, J. A. 1990. Current Protocols in Molecular Biology, John Wiley, New York). […]

In another experiment the target is T2, P selectin (Homo sapiens, UniProt P16109).
T2 construct: formed from the extracytoplasmic domain of either E selectin or P selectin; made in house; culture supernatant, captured on anti-human IgG
T2 sequence (P16109 42-771): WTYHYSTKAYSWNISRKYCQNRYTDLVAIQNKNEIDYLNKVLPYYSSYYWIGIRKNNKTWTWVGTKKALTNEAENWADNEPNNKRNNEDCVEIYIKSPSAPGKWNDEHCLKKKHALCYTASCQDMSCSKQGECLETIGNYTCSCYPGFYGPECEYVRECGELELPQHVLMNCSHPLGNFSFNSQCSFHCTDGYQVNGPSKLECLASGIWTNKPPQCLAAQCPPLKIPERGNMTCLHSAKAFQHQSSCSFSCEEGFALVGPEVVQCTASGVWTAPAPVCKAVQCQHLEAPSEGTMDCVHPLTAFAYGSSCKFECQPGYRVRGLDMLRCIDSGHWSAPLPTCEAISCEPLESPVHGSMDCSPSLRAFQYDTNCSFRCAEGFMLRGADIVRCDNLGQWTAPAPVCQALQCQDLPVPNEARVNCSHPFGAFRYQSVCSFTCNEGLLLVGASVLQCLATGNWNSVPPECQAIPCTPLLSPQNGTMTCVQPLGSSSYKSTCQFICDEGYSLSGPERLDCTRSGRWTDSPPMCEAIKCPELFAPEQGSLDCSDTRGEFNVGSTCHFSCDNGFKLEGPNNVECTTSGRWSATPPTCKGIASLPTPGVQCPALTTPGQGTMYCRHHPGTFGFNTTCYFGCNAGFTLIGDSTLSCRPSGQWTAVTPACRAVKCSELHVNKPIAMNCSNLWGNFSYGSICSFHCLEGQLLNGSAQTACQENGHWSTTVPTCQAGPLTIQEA
Nature of the experiment: HL60 cell adhesion assay on recombinant, soluble P selectin-IgG1 fusion protein. The conditions noted are these: HL60 cells. The experiment is classed as cell-based.
Text: as §1, §2
Preparation of P selectin-IgG1
The gene construct "CD62Rg", published by Aruffo et al., 1991, is used to prepare the soluble P selectin-IgG1 fusion protein. The subsequent procedure corresponds to the preparation of L selectin-IgG1 which was described in A1. Aruffo, A., Kolanus, W., Walz, G., Fredman, P. and Seed, B. 1991. CD62/-P-Selectin recognition of myeloid and tumor cell sulfatides. Cell 67, 35-44. […]
7. The quantity of BCECF-AM-labeled cells adhering in the wells is measured in a cytofluorimeter (Millipore) at a sensitivity setting of 4, an excitation wavelength of 485/22 nm and an emission wavelength of 530/25 nm.

For experiment [1], the system named is adhesion of leukocytes to the endothelium. Nature of the experiment: Leukocyte adhesion in vivo (intravital microscopy on the rat mesentery, LPS-induced). The settings on record: 10 mg/kg i.v., SPRD(m) rat, LPS 15 mg/kg 15 min after test substance; vs untreated controls. An excerpt:
Leukocyte adhesion--Examination of the efficacy of the compounds according to the invention in vivo (intravital microscopy on the rat):
The induced adhesion of leukocytes is quantified in the rat mesentery using an intravital microscopic investigation technique (Atherton A. and Born G. V. R., Quantitative investigations of the adhesiveness of circulating polymorphonuclear leukocytes to blood vessel walls. J. Physiol. 222, 447-474, 1972); herein incorporated by reference. A prolonged anesthesia is instituted, under inhalation anesthesia with ether, by injecting urethane ([…] of body weight) intramuscularly. Blood vessels (femoral vein for injection of substances and carotid artery for measuring blood pressure) are exposed by dissection and catheters are then tied into them. After that, the corresponding transparent tissue (mesentery) is exposed spread out on a microscope stage and overlaid with paraffin oil at 37° C. […] The resulting increase in the adhesion of leukocytes to the endothelium is quantified directly by means of vital microscopy or using fluorescence dyes. […] The number of rolling leukocytes (i.e. all leukocytes which are visibly rolling and which are slower than the flowing erythrocytes) and the number of leukocytes which are adhering to the endothelium (dwell time longer than 5 seconds) are recorded every 10 minutes for a period of 60 minutes. […]

The next experiment has as its target selectin receptors. The settings on record: all known in-vitro test systems; Jacob et al., 1995; read-out: IC50 (inhibition of cell adhesion to selectin receptors); cited from earlier work.
The test system of experiment [2] is myocardial reperfusion injuries. The settings on record: M. Buerke et al., 1994; cited from earlier work.
The subject of another experiment is neutrophil adhesion. Description: Reperfusion model on the open rabbit heart (Langendorff), leukocyte accumulation and arrhythmias. The settings on record: perfused rabbit heart, 30 min ischemia, 30 min reperfusion; vs untreated hearts. On the procedure:
Reperfusion model for investigating the influence of neutrophil adhesion in the course of ischemialreperfusion carried out on the open rabbit heart.
The hearts are perfused with nutrient solution, and also with/without leukocytes and/or active compound, at constant pressure using the Langendorff technique. After that, an ischemia is elicited by ligating the left coronary artery (30 min). Following reperfusion (30 min), the accumulation of leukocytes is evaluated histologically. During the course of the experiment, potentials and arrhythmias are measured at 256 electrodes (total duration of the experiment, approx. 90 min). […] The compounds according to the present invention, and also their physiologically tolerated salts, are very well suited, owing to their valuable pharmacological properties, for use as medicines in mammals, in particular humans.

What is called IC50 is the concentration that gives 50% inhibition.

Consider `C[C@@H]1O[C@@H](O[C@H](COCCCCCC(C(=O)O)C(=O)O)[C@@H](COCCCCCC(C(=O)O)C(=O)O)O[C@@H]2O[C@@H](C)[C@@H](O)[C@@H](O)[C@@H]2O)[C@@H](O)[C@H](O)[C@@H]1O` [Compound 6a, 1,4-bis(5-malonyl-1-pentyloxy)-2,3-bis(α-L-fucopyranosyl)-D-threitol], for which the IC50 at E selectin lay in the range of 0.5 to 1.5 mM; on P selectin it was 3.5 to 4.1 mM. Besides, the “inhibition (of leukocyte adhesion)” value in experiment [1] is on record as 39%.
As for sialyl Lewis X [SLeX], the IC50 on selectin receptors is around 1 mM. Besides, the “use in animal experiments, myocardial reperfusion injuries” value in experiment [2] is on record as “used successfully”.
As for chondroitin sulfate, in the experiment with neutrophil adhesion, the arrhythmias entry is reported as “fewer arrhythmias” and the leukocyte accumulation entry is recorded as “less leukocyte accumulation”.

(Values after US5811405A (Hoechst Aktiengesellschaft, priority 1996, dated 1998).)
